Source: patent US11109593B2, “Isoxazolin-5-one derivative and herbicide containing same as active ingredient” (HOKKO CHEMICAL INDUSTRY CO., LTD., priority 2017, dated 2021)

What was measured:
Assay type in all cases: in vivo
Echinochloa crus-galli [1] = assay: Test Example 1: herbicidal effect test by treatment of rice paddy soil (immediately after seeding)
In short: (§1)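 Puddled, fertilized (N:P:K=17:17:17) paddy soil in Wagner pots; seeds sown 0–1 cm deep, flooded to about 3 cm. Emulsifiable formulations diluted in water and dropped into the water immediately after seeding at 120 g active ingredient per 10 ares; greenhouse. Herbicidal rate from dry weight vs untreated at 14 days.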

[2] = tested on: broad leaf weeds (Lindernia pyxidaria and Monochoria vaginalis); assay: as above
In short: as §1

Scirpus juncoides [3] = assay: as above
In short: as §1

Echinochloa crus-galli [4] = assay: Test Example 3: herbicidal effect test by treatment of dry field farming soil (one day after seeding); conditions: 120 g/10a active ingredient, evaluated 14 days after treatment
In short: (§2)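 Herbicidal rate (%) = {1 − treated/untreated mean plant dry weight} × 100, scored 14 days after spraying, duplicate pots per concentration. Emulsified compound was water-diluted and applied to soil surface one day post-seeding at 120 g a.i. per 10 ares.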

Amaranthus viridis [5] = assay: as above; conditions: 120 g/10a active ingredient, evaluated 14 days after treatment
In short: as §2

southern crabgrass [6] = assay: as above; conditions: 120 g/10a active ingredient, evaluated 14 days after treatment
In short: as §2

Chenopodium album [7] = assay: as above; conditions: 120 g/10a active ingredient, evaluated 14 days after treatment
In short: as §2

Echinochloa crus-galli [8] = assay: Test Example 4: herbicidal effect test by treatment of leave and stem in dry field farming (seven days after seeding); conditions: 120 g/10a active ingredient; emulsion sprayed seven days after seeding; evaluated 14 days after treatment
In short: (§3)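 Duplicate pots were scored 14 days post-spray by dry weight, herbicidal rate = {1 − treated/untreated average dry weight} × 100. The water-diluted emulsion, equivalent to 120 g active ingredient per 10 ares in 100 L, was applied seven days after sowing 20 seeds each into the upper 1 cm of alluvial soil.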

Amaranthus viridis [9] = assay: as above; conditions: 120 g/10a active ingredient; emulsion sprayed seven days after seeding; evaluated 14 days after treatment
In short: as §3

southern crabgrass [10] = assay: as above; conditions: 120 g/10a active ingredient; emulsion sprayed seven days after seeding; evaluated 14 days after treatment
In short: as §3

Chenopodium album [11] = assay: as above; conditions: 120 g/10a active ingredient; emulsion sprayed seven days after seeding; evaluated 14 days after treatment
In short: as §3

Echinochloa crus-galli [12] = assay: Test Example 2: herbicidal effect test by treatment during growing period in paddy rice cultivation (seven days after seeding); conditions: for Herbicidal rate (%) Echinochloa crus-galli: 120 g/10a active ingredient, assessed 14 days after treatment, dry weight vs untreated area
In short: (§4)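 Emulsion formulations, diluted in water, applied dropwise to flooded pots (about 3 cm water) 7 days post-seeding at 120 g a.i./10 ares. Weeds sown 30 seeds each, 0–1 cm deep in puddled paddy soil; greenhouse. Readout: % reduction in plant dry weight vs untreated, day 14, duplicates.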

[13] = tested on: broad leaf weeds (Lindernia pyxidaria and Monochoria vaginalis); assay: as above; conditions: for Herbicidal rate (%) Lindernia pyxidaria / Herbicidal rate (%) Monochoria vaginalis: 120 g/10a active ingredient, assessed 14 days after treatment, dry weight vs untreated area
In short: as §4

Scirpus juncoides [14] = assay: as above; conditions: for Herbicidal rate (%) Scirpus juncoides: 120 g/10a active ingredient, assessed 14 days after treatment, dry weight vs untreated area
In short: as §4

[15] = 120 g/10a active ingredient, dry weight vs untreated area, 14 days after treatment
[16] = Lindernia pyxidaria, 120 g/10a active ingredient, dry weight vs untreated area, 14 days after treatment
[17] = Monochoria vaginalis, 120 g/10a active ingredient, dry weight vs untreated area, 14 days after treatment
[18] = 120 g/10a active ingredient, 14 days after treatment, dry weight vs untreated area
[19] = 120 g/10a, rated 14 days after treatment, paddy soil pots

Row | SMILES | Herbicidal rate (%) Echinochloa crus-galli (Echinochloa crus-galli [1]; [15]) [%] | Herbicidal rate (%) Lindernia pyxidaria [2, 16] [%] | Herbicidal rate (%) Monochoria vaginalis [2, 17] [%] | Herbicidal rate (%) Scirpus juncoides (Scirpus juncoides [3]; [15]) [%] | herbicidal rate, Echinochloa crus-galli (Echinochloa crus-galli [4]) [%] | herbicidal rate, Amaranthus viridis (Amaranthus viridis [5]) [%] | herbicidal rate, southern crabgrass (southern crabgrass [6]) [%] | herbicidal rate, Chenopodium album (Chenopodium album [7]) [%] | herbicidal effect (herbicidal rate), Echinochloa crus-galli (Echinochloa crus-galli [8]) [%] | herbicidal effect (herbicidal rate), Amaranthus viridis (Amaranthus viridis [9]) [%] | herbicidal effect (herbicidal rate), southern crabgrass (southern crabgrass [10]) [%] | herbicidal effect (herbicidal rate), Chenopodium album (Chenopodium album [11]) [%] | Herbicidal rate (%) Echinochloa crus-galli (Echinochloa crus-galli [12]) [%] | Herbicidal rate (%) Lindernia pyxidaria ([13]; Lindernia pyxidaria) [%] | Herbicidal rate (%) Monochoria vaginalis ([13]; Monochoria vaginalis) [%] | Herbicidal rate (%) Scirpus juncoides (Scirpus juncoides [14]) [%] | further results
1 | CCOC(=O)N(c1ccccc1Cc1c(C)n(CC(C)(C)C)oc1=O)S(=O)(=O)C(F)(F)F [Compound 1-609] | 90 | 90 | 90 | 90 | 90 | 90 | 90 | 90 | 90 | 40 | 90 | 40 | 90 | 90 | 90 | 90 | –
2 | Cc1c(Cc2ccccc2NS(=O)(=O)C(F)(F)F)c(=O)on1Cc1ccc(F)cc1 [Compound 1-183] | 100 | 100 | 100 | 100 | 90 | 50 | 90 | 60 | 90 | 40 | 50 | 50 | 80 | 100 | 100 | 100 | –
3 | CCCC(C)n1oc(=O)c(Cc2ccccc2N(C(=O)C(C)C)S(=O)(=O)C(F)(F)F)c1C (stereo not shown) [Compound 1-334] | 100 | 70 | 80 | 90 | 90 | 50 | 70 | 40 | 90 | 60 | 90 | 60 | 100 | 70 | 70 | 90 | –
4 | Cc1ccc(S(=O)(=O)N(c2ccccc2Cc2c(C)n(C(C)C)oc2=O)S(=O)(=O)C(F)(F)F)cc1 [Compound 1-1127] | – | – | – | – | 90 | 40 | 70 | 60 | 90 | 40 | 40 | 40 | – | – | – | – | Herbicidal rate (%) Echinochloa crus-galli (Echinochloa crus-galli [1]; [18]): 100%; Herbicidal rate (%) Lindernia pyxidaria ([2]; Lindernia pyxidaria, 120 g/10a active ingredient, 14 days after treatment, dry weight vs untreated area): 100%; Herbicidal rate (%) Monochoria vaginalis ([2]; Monochoria vaginalis, 120 g/10a active ingredient, 14 days after treatment, dry weight vs untreated area): 100%; Herbicidal rate (%) Scirpus juncoides (Scirpus juncoides [3]; [18]): 90%; herbicidal rate, Echinochloa crus-galli (Echinochloa crus-galli [12]; [19]): 100%; herbicidal rate, Lindernia pyxidaria ([13]; Lindernia pyxidaria, 120 g/10a, rated 14 days after treatment, paddy soil pots): 100%; herbicidal rate, Monochoria vaginalis ([13]; Monochoria vaginalis, 120 g/10a, rated 14 days after treatment, paddy soil pots): 100%; herbicidal rate, Scirpus juncoides (Scirpus juncoides [14]; [19]): 90%
5 | Cc1c(Cc2ccccc2N(C(=O)OCC(C)C)S(=O)(=O)C(F)(F)F)c(=O)on1C(C)(C)C [Compound 1-668] | 90 | 90 | 90 | 90 | 90 | 90 | 90 | 90 | 90 | 40 | 90 | 40 | 90 | 90 | 90 | 90 | –
6 | COCC(C)n1oc(=O)c(Cc2ccccc2N(C(=O)OC)S(=O)(=O)C(F)(F)F)c1C (stereo not shown) [Compound 1-587] | 90 | 90 | 90 | 90 | 90 | 90 | 90 | 90 | 90 | 40 | 90 | 40 | 90 | 90 | 90 | 90 | –
7 | CCN(CC)C(=O)N(c1ccccc1Cc1c(C)n(C(C)c2ccccc2)oc1=O)S(=O)(=O)C(F)(F)F (stereo not shown) [Compound 1-886] | 90 | 90 | 90 | 90 | 90 | 90 | 90 | 90 | 90 | 40 | 90 | 40 | 90 | 90 | 90 | 90 | –
